Test [1] has as its target His-tagged KRAS G12D protein (Homo sapiens, UniProt P01116, G12D). Description: biochemical.
Experimental: The plate was incubated for 30 minutes at room temperature. Biotinylated KRPep-2d substrate (Amgen) was diluted to nM in Assay Buffer and 2 μL was added to all wells and incubated for 1 hour at room temperature. Detection Reagent (0.4 nM LANCE Eu-W1024 Anti-6×His (Perkin Elmer AD0401), 5 nM streptavidin-d2 (Cisbio 610SADLA)) was prepared in Assay Buffer, then 4 µL was added to the plate and incubated for 1 hour at room temperature.
Test [2] relates to Phosphorylation of ERK1/2 in AsPC-1 cells. In words: Phospho-ERK1/2 MSD Assay. Type of test: cell-based. The protocol: Sixteen hours prior to compound treatment, AsPC-1 cells were seeded in 96-well cell culture plates at a density of 25,000 cells/well and incubated at 37° C., 5% CO2. A compound dose-response titration was diluted in growth media, added to appropriate wells of a cell culture plate, and then incubated at 37° C., 5% CO2 for 2 hours.

Setting [3] is: Homo sapiens, ASPC1, 2 h, read-out: 2 h p-ERK (AsPC-1 cells), IC50, AsPC-1 cells, 2 h compound treatment.
Where [4] appears, read: read-out: 2 h p-ERK (AsPC-1 cells), IC50, AsPC-1 cells, 2 h compound treatment.

Like-named read-outs stand apart in the source and are kept apart here. A value given as a limit tells only on which side of the number the result lay.

His-tagged KRAS G12D protein, sequence (P01116 1-188 isoform P01116-2 G12D): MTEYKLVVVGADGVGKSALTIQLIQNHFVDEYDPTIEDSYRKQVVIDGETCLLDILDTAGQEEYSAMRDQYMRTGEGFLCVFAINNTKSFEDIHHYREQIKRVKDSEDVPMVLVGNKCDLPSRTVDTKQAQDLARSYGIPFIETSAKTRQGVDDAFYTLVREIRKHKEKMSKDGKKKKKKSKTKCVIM

For orientation: IC50 means the concentration that inhibits the measured activity by half. In the case of `C[C@@]1(O)CCCN(c2nc(OC[C@@]34CCCN3C[C@H](F)C4)nc3c(F)c(-c4cc(O)cc5cccc(F)c45)ncc23)C1` [Example 57, (R)-1-(8-Fluoro-7-(8-fluoro-3-hydroxynaphthalen-1-yl)-2-(((2R,7aS)-2-fluorotetrahydro-1H-pyrrolizin-7a(5H)-yl)methoxy)pyrido[4,3-d]pyrimidin-4-yl)-3-methylpiperidin-3-ol], the results for the half-maximal inhibitory concentration (IC50) in test [1] and in test [2] (setting [3]) were 2 nM and 115 nM, respectively.
For `CCc1c(F)ccc2cc(O)cc(-c3ncc4c(N5CCCC[C@@H](NC(=O)C(F)F)C5)nc(OC[C@@]56CCCN5C[C@H](F)C6)nc4c3F)c12` [Example 132, N-((R)-1-(7-(8-Ethyl-7-fluoro-3-hydroxynaphthalen-1-yl)-8-fluoro-2-(((2R,7aS)-2-fluorotetrahydro-1H-pyrrolizin-7a(5H)-yl)methoxy)pyrido[4,3-d]pyrimidin-4-yl)azepan-3-yl)-2,2-difluoroacetamide], the IC50 is 1 nM in test [1] and 119 nM in test [2] (setting [3]).
In the same order, the values of `Oc1cc(-c2ncc3c(N4CC5CC(O)C(C5)C4)nc(OC[C@@]45CCCN4C[C@H](F)C5)nc3c2F)c2c(F)c(F)ccc2c1` (stereo partly drawn) [Example 18, 3-(7-(7,8-Difluoro-3-hydroxynaphthalen-1-yl)-8-fluoro-2-(((2R,7aS)-2-fluorotetrahydro-1H-pyrrolizin-7a(5H)-yl)methoxy)pyrido[4,3-d]pyrimidin-4-yl)-3-azabicyclo[3.2.1]octan-6-ol] are 3 nM and 105 nM.
In the case of `CCc1c(F)ccc2cc(O)cc(-c3ncc4c(N5CC6CC(=O)C5C6)nc(OC[C@@]56CCCN5C[C@H](F)C6)nc4c3F)c12` (stereo partly drawn) [Example 72, 2-(7-(8-Ethyl-7-fluoro-3-hydroxynaphthalen-1-yl)-8-fluoro-2-(((2R,7aS)-2-fluorotetrahydro-1H-pyrrolizin-7a(5H)-yl)methoxy)pyrido[4,3-d]pyrimidin-4-yl)-2-azabicyclo[2.2.1]heptan-6-one], the values for the IC50 in test [1] and in test [2] (setting [3]) were 34 nM and 3240 nM, respectively.
Regarding `CCc1c(F)ccc2cc(O)cc(-c3ncc4c(N5CC6CCC(C6)C5)nc(OC[C@@]56CCCN5C[C@H](F)C6)nc4c3F)c12` [Example 105, 4-(4-(3-Azabicyclo[3.2.1]octan-3-yl)-8-fluoro-2-(((2R,7aS)-2-fluorotetrahydro-1H-pyrrolizin-7a(5H)-yl)methoxy)pyrido[4,3-d]pyrimidin-7-yl)-5-ethyl-6-fluoronaphthalen-2-ol], the IC50 was found to be 9 nM in test [1] and 939 nM in test [2] (setting [3]).
For `CCc1c(F)ccc2cc(O)cc(-c3ncc4c(N5CCC[C@@](C)(O)C5)nc(OCC56CCCN5CCC6)nc4c3F)c12` [Example 179, (R)-1-(7-(8-Ethyl-7-fluoro-3-hydroxynaphthalen-1-yl)-8-fluoro-2-((tetrahydro-1H-pyrrolizin-7a(5H)-yl)methoxy)pyrido[4,3-d]pyrimidin-4-yl)-3-methylpiperidin-3-ol], the half-inhibitory concentration (IC50) in test [1] came out at 5 nM; in test [2] (setting [3]), 18 nM.
The matching figures for `CCc1c(F)ccc2cc(O)cc(-c3ncc4c(N5CCC[C@@H](C(=O)O)C5)nc(OC[C@@]56CCCN5C[C@H](F)C6)nc4c3F)c12` [Example 138, (R)-1-(7-(8-Ethyl-7-fluoro-3-hydroxynaphthalen-1-yl)-8-fluoro-2-(((2R,7aS)-2-fluorotetrahydro-1H-pyrrolizin-7a(5H)-yl)methoxy)pyrido[4,3-d]pyrimidin-4-yl)piperidine-3-carboxylic acid]: 16 nM and greater than 10000 nM.
Turning to `CCc1cccc2cc(O)cc(-c3ncc4c(N5CC6CC(O)C(C6)C5)nc(OC[C@@]56CCCN5C[C@H](F)C6)nc4c3F)c12` (single isomer, unassigned) [Example 29], the IC50 in test [1] worked out at 1 nM; in test [2] (setting [3]), 31 nM.
The matching figures for `CCc1c(F)ccc2cc(O)cc(-c3ncc4c(N5CCCC(CO)(CCl)C5)nc(OC[C@@]56CCCN5C[C@H](F)C6)nc4c3F)c12` (stereo partly drawn) [Example 22, 4-(4-(3-(Chloromethyl)-3-(hydroxymethyl)piperidin-1-yl)-8-fluoro-2-(((2R,7aS)-2-fluorotetrahydro-1H-pyrrolizin-7a(5H)-yl)methoxy)pyrido[4,3-d]pyrimidin-7-yl)-5-ethyl-6-fluoronaphthalen-2-ol]: 4 nM and 297 nM.
The matching figures for `CCc1c(F)ccc2cc(O)cc(-c3ncc4c(N5CCC6CC6(O)C5)nc(OC[C@@]56CCCN5C[C@H](F)C6)nc4c3F)c12` (stereo partly drawn) [Example 99, 3-(7-(8-Ethyl-7-fluoro-3-hydroxynaphthalen-1-yl)-8-fluoro-2-(((2R,7aS)-2-fluorotetrahydro-1H-pyrrolizin-7a(5H)-yl)methoxy)pyrido[4,3-d]pyrimidin-4-yl)-3-azabicyclo[4.1.0]heptan-1-ol]: 11 nM and 794 nM.
For the compound `CCc1c(F)ccc2cc(O)cc(-c3ncc4c(N5CCC[C@@H](C(N)=O)C5)nc(OC[C@@]56CCCN5C[C@H](F)C6)nc4c3F)c12` [Example 162, (R)-1-(7-(8-Ethyl-7-fluoro-3-hydroxynaphthalen-1-yl)-8-fluoro-2-(((2R,7aS)-2-fluorotetrahydro-1H-pyrrolizin-7a(5H)-yl)methoxy)pyrido[4,3-d]pyrimidin-4-yl)piperidine-3-carboxamide], the IC50 in test [1] stood at 2 nM; in test [2] (setting [3]), 1610 nM.
The matching figures for `CCC1CCCc2cc(O)cc(-c3ncc4c(N5CCC[C@@](C)(O)C5)nc(OC[C@@]56CCCN5C[C@H](F)C6)nc4c3F)c21` (single isomer, unassigned) [Example 173]: 4 nM and 22 nM.
Regarding `CCc1c(F)ccc2cc(O)cc(-c3ncc4c(N5CCCC(C(=O)NC)C5)nc(OC[C@@]56CCCN5C[C@H](F)C6)nc4c3F)c12` (stereo partly drawn) [Example 89, 1-(7-(8-Ethyl-7-fluoro-3-hydroxynaphthalen-1-yl)-8-fluoro-2-(((2R,7aS)-2-fluorotetrahydro-1H-pyrrolizin-7a(5H)-yl)methoxy)pyrido[4,3-d]pyrimidin-4-yl)-N-methylpiperidine-3-carboxamide], the IC50 in test [1] is 9 nM; in test [2] (setting [3]) it was greater than 3000 nM.
The matching figures for `CCc1cccc2cc(O)cc(-c3ncc4c(N5CCC[C@@H](O)C5)nc(OC[C@@]56CCCN5C[C@H](F)C6)nc4c3F)c12` [Example 13, (R)-1-(7-(8-Ethyl-3-hydroxynaphthalen-1-yl)-8-fluoro-2-(((2R,7aS)-2-fluorotetrahydro-1H-pyrrolizin-7a(5H)-yl)methoxy)pyrido[4,3-d]pyrimidin-4-yl)piperidin-3-ol]: 2 nM and 107 nM.
`CCc1c(F)ccc2cc(O)cc(-c3ncc4c(N5CC6CC(O)C(C6)C5)nc(OC[C@@]56CCCN5C[C@H](F)C6)nc4c3F)c12` (single isomer, unassigned) [Example 23]: the figures for the IC50 in test [1] and in test [2] (setting [4]) were 31 nM and 2380 nM, respectively.
As to `CCc1c(F)ccc2cc(O)cc(-c3ncc4c(N5CCCCC(C)(O)C5)nc(OC[C@@]56CCCN5C[C@H](F)C6)nc4c3F)c12` (single isomer, unassigned) [Example 137], the IC50 was 2 nM in test [1] and 40 nM in test [2] (setting [4]).
On to `CCc1c(F)ccc2cc(O)cc(-c3ncc4c(N5CCCC(C)(C(N)=O)C5)nc(OC[C@@]56CCCN5C[C@H](F)C6)nc4c3F)c12` (stereo partly drawn) [Example 68, 1-(7-(8-Ethyl-7-fluoro-3-hydroxynaphthalen-1-yl)-8-fluoro-2-(((2R,7aS)-2-fluorotetrahydro-1H-pyrrolizin-7a(5H)-yl)methoxy)pyrido[4,3-d]pyrimidin-4-yl)-3-methylpiperidine-3-carboxamide], for which the figures for the IC50 in test [1] and in test [2] (setting [3]) were 8 nM and 1690 nM, respectively.
`CCc1c(F)ccc2cc(O)cc(-c3ncc4c(N5CCC(O)C(F)(F)CC5)nc(OC[C@@]56CCCN5C[C@H](F)C6)nc4c3F)c12` (stereo partly drawn) [Example 120, 1-(7-(8-Ethyl-7-fluoro-3-hydroxynaphthalen-1-yl)-8-fluoro-2-(((2R,7aS)-2-fluorotetrahydro-1H-pyrrolizin-7a(5H)-yl)methoxy)pyrido[4,3-d]pyrimidin-4-yl)-5,5-difluoroazepan-4-ol]: the IC50 in test [1] was 4 nM; in test [2] (setting [3]), 222 nM.
In the same order, the values of `CCc1c(F)ccc2cc(O)cc(-c3ncc4c(N5CCCC(S(=O)(=O)NC)C5)nc(OC[C@@]56CCCN5C[C@H](F)C6)nc4c3F)c12` (stereo partly drawn) [Example 79, 1-(7-(8-Ethyl-7-fluoro-3-hydroxynaphthalen-1-yl)-8-fluoro-2-(((2R,7aS)-2-fluorotetrahydro-1H-pyrrolizin-7a(5H)-yl)methoxy)pyrido[4,3-d]pyrimidin-4-yl)-N-methylpiperidine-3-sulfonamide] are 5 nM and 2190 nM.
In the same order, the values of `Oc1cc(Cl)c(C2CC2)c(-c2ncc3c(N4CC5CC(O)C(C5)C4)nc(OC[C@@]45CCCN4C[C@H](F)C5)nc3c2F)c1` (single isomer, unassigned) [Example 30] are 3 nM and 399 nM.
In the same order, the values of `CCc1c(F)ccc2cc(O)cc(-c3ncc4c(N5CC(C)(O)C5)nc(OC[C@@]56CCCN5C[C@H](F)C6)nc4c3F)c12` [Example 92, 1-(7-(8-Ethyl-7-fluoro-3-hydroxynaphthalen-1-yl)-8-fluoro-2-(((2R,7aS)-2-fluorotetrahydro-1H-pyrrolizin-7a(5H)-yl)methoxy)pyrido[4,3-d]pyrimidin-4-yl)-3-methylazetidin-3-ol] are 83 nM and 6620 nM.
Take `Oc1cc(-c2ncc3c(N4CCC[C@@H](O)C4)nc(OC[C@@]45CCCN4C[C@H](F)C5)nc3c2F)c2c(F)c(F)ccc2c1` [Example 12, (R)-1-(7-(7,8-Difluoro-3-hydroxynaphthalen-1-yl)-8-fluoro-2-(((2R,7aS)-2-fluorotetrahydro-1H-pyrrolizin-7a(5H)-yl)methoxy)pyrido[4,3-d]pyrimidin-4-yl)piperidin-3-ol]: the IC50 in test [1] was 2 nM; in test [2] (setting [3]) it was 377 nM.

The values are drawn from patent US20250034167A1, “HETEROCYCLIC COMPOUNDS AND METHODS OF USE” (AMGEN INC., priority 2021, published 2025).
